Measurements as given in patent US11603349B2, “Anti-fibrotic compounds” (Certa Therapeutics Pty Ltd, priority 2017, dated 2023).
Where a name gives a salt, the structure may show the parent alone.

How the values were obtained:
[1] = MTS tetrazolium reduction cell viability assay; details: rat, rat mesangial cells (1097/IRMC cells), TGF-β1 stimulated, CC50 (μM), vs 1% DMSO vehicle
[2] = tested on: TGF-β induced [14C]-proline incorporation in rat mesangial cells; experiment: [14C]-proline incorporation assay (collagen biosynthesis); assay type: cell-based; details: Rattus norvegicus, Mesangial cell, 44 h
[3] = inhibition of TGF-β1 (1 ng/ml) induced [14C]-proline incorporation, IRMC cells

Compound	CC50 at 48 h [1] [µM]	IC50 [2, 3] [µM]	IC50 [2] [µM]
COc1ccc(/C=C/C(=O)Nc2ccccc2C#N)c(OCCN(C)C)c1 [Example 94, (E)-N-(2-cyanophenyl)-3-[2-[2-(dimethylamino)ethoxy]4-methoxy-phenyl]prop-2-enamide]	35	21.7	
COc1ccc(C2CC2C(=O)Nc2ccccc2Cl)cc1OCc1cnn(C)c1 (centres unmarked) [Example 157]	45.3	12.6	
COc1ccc(/C=C/C(=O)Nc2cccc(Cl)c2)cc1OCc1cnn(C)c1 [Example 160, (E)-N-(3-chlorophenyl)-3-(4-methoxy-3-((1-methyl-1H-pyrazol-4-yl)methoxy)phenyl)acrylamide]	> 300	30.4	
COCCOc1cc(/C=C/C(=O)Nc2ccccc2C(=O)O)ccc1OC [Example 61, (E)-2-(3-(4-methoxy-3-(2-methoxyethoxy)phenyl)acrylamido)benzoic acid]	276	48.9	
CN1Cc2ccc(/C=C/C(=O)Nc3ccccc3C(=O)O)cc2C1=O [Example 108, (E)-2-(3-(2-methyl-3-oxoisoindolin-5-yl)acrylamido)benzoic acid]	> 300	40.4	
COc1ccc(/C=C/C(=O)Nc2cc(Cl)ccc2C(=O)O)c(OCCN(C)C)c1OC [Example 117, (E)-4-chloro-2-(3-(2-(2-(dimethylamino)ethoxy)-3,4-dimethoxyphenyl)acrylamido)benzoic Acid]	> 300	21.4	
C#CCOc1ccc(/C=C/C(=O)Nc2ccccc2F)cc1CC [Example 123, (E)-3-(3-ethyl-4-(prop-2-yn-1-yloxy)phenyl)-N-(2-fluorophenyl)acrylamide]	> 300	19.3	
COc1cc(/C=C/C(=O)Nc2ccccc2Cl)ccc1OCC1COC1 [Example 152, (E)-N-(2-chlorophenyl)-3-(3-methoxy-4-(oxetan-3-ylmethoxy)phenyl)acrylamide]	> 300	38.2	
COc1ccc(/C=C/C(=O)Nc2cccc(Cl)c2)cc1N1CCOCC1 [Example 151, (E)-N-(3-chlorophenyl)-3-(4-methoxy-3-morpholinophenyl)acrylamide]	> 300	31.6	
C#CCOc1ccc(/C=C/C(=O)Nc2ccccc2-c2cnn(C)c2)cc1OC [Example 22, (E)-3-(3-methoxy-4-(prop-2-yn-1-yloxy)phenyl)-N-(2-(1-methyl-1H-pyrazol-4-yl)phenyl)-acrylamide]	240		16.4
C#CCOc1ccc(/C=C/C(=O)Nc2ccccc2C(=O)NCCc2ccccn2)cc1OC [Example 42, (E)-2-(3-(3-methoxy-4-(prop-2-yn-1-yloxy)phenyl)acrylamido)-N-(2-(pyridin-2-yl)ethyl)benzamide]	52	17	
COc1ccc(/C=C/C(=O)Nc2cccnc2)cc1OCc1cnn(C)c1 [Example 150, (E)-3-(4-methoxy-3-((1-methyl-1H-pyrazol-4-yl)methoxy)phenyl)-N-(pyridin-3-yl)acrylamide]	> 31.6	4.08	
COc1cc(C2CC2C(=O)Nc2ccc(C#N)cc2)ccc1OC1CCN(C)C1 (centres unmarked) [Example 137, N-(4-cyanophenyl)-2-(3-methoxy-4-((1-methylpyrrolidin-3-yl)oxy)phenyl)cyclopropane-1-carboxamide]	30.8	15.4	
COc1cc(C2CC2C(=O)Nc2ccccc2F)ccc1OC1CCN(C)C1 (centres unmarked) [Example 138, N-(2-fluorophenyl)-2-(3-methoxy-4-((1-methylpyrrolidin-3-yl)oxy)phenyl)cyclopropane carboxamide]	50.9	11	
COc1ccc(/C=C/C(=O)Nc2ccccc2C(=O)O)cc1CC1CC1 [Example 106, (E)-2-(3-(3-(cyclopropylmethyl)-4-methoxyphenyl)acrylamido)benzoic acid]	25.1	1.58	
CN1C(=O)COc2cc(/C=C/C(=O)Nc3ccccc3C(=O)O)ccc21 [Example 109, (E)-2-(3-(4-methyl-3-oxo-3,4-dihydro-2H-benzo[b][1,4]oxazin-7-yl)acrylamido)benzoic Acid]	> 300	24.3	
C#CCOc1ccc(/C=C/C(=O)Nc2ccccc2-c2nc(C)no2)cc1OC [Example 28, (E)-3-(3-methoxy-4-(prop-2-yn-1-yloxy)phenyl)-N-(2-(3-methyl-1,2,4-oxadiazol-5-yl)phenyl)acryl-amide]	146	11.6	
C#CCOc1ccc(/C=C/C(=O)Nc2ccccc2C(=O)O)c(OC2CCNCC2)c1OC [Example 83, 2-[[(E)-3-[3-methoxy-2-(4-piperidyloxy)-4-prop-2-ynoxy-phenyl]prop-2-enoyl]amino]benzoic acid]	> 300	32.5	
COc1ccc(/C=C/C(=O)Nc2ccccc2C(=O)O)c(OCc2cccnc2)c1OC [Example 96, (E)-2-(3-(3,4-dimethoxy-2-(pyridin-3-ylmethoxy)phenyl)acrylamido)benzoic Acid]	> 300	33.6	

Compound	CC50 at 48 h [1] [µM]	IC50 [2, 3] [µM]	IC50 [2] [µM]
C#CCOc1ccc(/C=C/C(=O)Nc2ccccc2-c2noc(C)n2)cc1OC [Example 18, (E)-3-(3-methoxy-4-(prop-2-yn-1-yloxy)phenyl)-N-(2-(5-methyl-1,2,4-oxadiazol-3-yl)phenyl)-acrylamide]	151	17.2	
C#CCOc1ccc(/C=C/C(=O)Nc2ccccc2C(=O)NC2CCN(C)CC2)cc1OC [Example 36, (E)-2-(3-(3-methoxy-4-(prop-2-yn-1-yloxy)phenyl)acrylamido)-N-(1-methylpiperidin-4-yl)benzamide]	15.2	15.8	
COc1cc(C2CC2C(=O)Nc2cccc(Cl)c2)ccc1OCC1COC1 (centres unmarked) [Example 148, N-(3-chlorophenyl)-2-(3-methoxy-4-(oxetan-3-ylmethoxy)phenyl)cyclopropane-1-carboxamide]	77.6	8.47	
C#CCOc1ccc(/C=C/C(=O)Nc2ccccc2-n2cnc(C)n2)cc1CC [Example 114, (E)-3-(3-ethyl-4-(prop-2-yn-1-yloxy)phenyl)-N-(2-(3-methyl-1H-1,2,4-triazol-1-yl)phenyl)-acrylamide]	82	14.3	
COc1cc(/C=C/C(=O)Nc2ccccc2C(=O)O)ccc1OCc1ccccn1 [Example 55, (E)-2-(3-(3-methoxy-4-(pyridin-2-ylmethoxy)phenyl)acrylamido)benzoic acid]	86.1	44.3	
C#CCOc1ccc(/C=C/C(=O)Nc2ccccc2)cc1OC [Example 8, (E)-3-(3-methoxy-4-(prop-2-yn-1-yloxy)phenyl)-N-phenylacrylamide]	109		5.33
COc1ccc(/C=C/C(=O)Nc2ccccc2F)c(OCCN(C)C)c1OC [Example 127, (E)-3-(2-(2-(dimethylamino)ethoxy)-3,4-dimethoxyphenyl)-N-(2-fluorophenyl)acrylamide]	82.9	35.4	
O=C(/C=C/c1ccc2c(c1)NC(=O)CO2)Nc1ccccc1C(=O)O [Example 111, (E)-2-(3-(3-oxo-3,4-dihydro-2H-benzo[b][1,4]oxazin-6-yl)acrylamido)benzoic acid]	> 300	30	
C#CCOc1ccc(/C=C/C(=O)Nc2cccc(C#N)c2)c(OCCN(C)C)c1OC [Example 76, (E)-N-(3-cyanophenyl)-3-[2-[2-(dimethylamino)ethoxy]-3-methoxy-4-prop-2-ynoxy-phenyl]prop-2-enamide]	18.1	14.9	
COc1cc(/C=C/C(=O)Nc2ccccc2C(=O)O)ccc1OCC1CCNCC1 [Example 50, (E)-2-(3-(3-methoxy-4-(piperidin-4-ylmethoxy)phenyl)acrylamido)benzoic acid]	107	47.4	
COc1cc(/C=C/C(=O)Nc2ccccc2C(=O)O)ccc1N1CCOCC1 [Example 103, (E)-2-(3-(3-methoxy-4-morpholinophenyl)acrylamido)benzoic acid trifluoroacetic acid salt]	265	28	
COc1ccc(C2CC2C(=O)Nc2cccc(Cl)c2)cc1OCc1cnn(C)c1 (centres unmarked) [Example 156, N-(3-chlorophenyl)-2-(4-methoxy-3-((1-methyl-1H-pyrazol-4-yl)methoxy)phenyl)cyclopropane-1-carboxamide]	> 100	17.8	
COc1cc(/C=C/C(=O)Nc2ccccc2C(=O)O)ccc1OCc1ccnn1C [Example 60, (E)-2-(3-(3-methoxy-4-((1-methyl-1H-pyrazol-5-yl)methoxy)phenyl)acrylamido)benzoic acid]	100	20.3	
COc1cc(/C=C/C(=O)Nc2ccccc2F)ccc1OC1CCN(C)C1 (centres unmarked) [Example 130, (E)-N-(2-fluorophenyl)-3-(3-methoxy-4-((1-methylpyrrolidin-3-yl)oxy)phenyl)acrylamide]	51.8	15.6	
C#CCOCc1cc(/C=C/C(=O)Nc2ccccc2C(=O)O)ccc1OC [Example 71, (E)-2-(3-(4-methoxy-3-((prop-2-yn-1-yloxy)methyl)phenyl)acrylamido)benzoic acid]	116	12.2	
C#CCNCc1cc(/C=C/C(=O)Nc2ccccc2C(=O)O)ccc1OC [Example 74, (E)-2-(3-(4-methoxy-3-((prop-2-yn-1-ylamino)methyl)phenyl)acrylamido)benzoic acid]	319	14.7	
COc1cc(/C=C/C(=O)Nc2cccc(Cl)c2)ccc1OCC1COC1 [Example 147, (E)-N-(3-chlorophenyl)-3-(3-methoxy-4-(oxetan-3-ylmethoxy)phenyl)acrylamide]	> 300	39.1	
COc1cc(/C=C/C(=O)Nc2ccccc2C(=O)O)ccc1OCc1c(C)noc1C [Example 52, (E)-2-(3-(4-((3,5-dimethylisoxazol-4-yl)methoxy)-3-methoxyphenyl)acrylamido)benzoic acid]	140	11.3	
